In ChEMBL document CHEMBL1201862, “PubChem BioAssay data set” (2004):
Active and inactive are the calls of the source.

Legend:
[1] = target: T1, Ubiquitin-conjugating enzyme E2 N (Homo sapiens, UniProt P61088); format: functional;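 note: Dose-response confirmation in a TR-FRET assay detecting UBC13-driven polyubiquitin chain formation, inhibition measured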
T1 sequence (P61088 whole entry): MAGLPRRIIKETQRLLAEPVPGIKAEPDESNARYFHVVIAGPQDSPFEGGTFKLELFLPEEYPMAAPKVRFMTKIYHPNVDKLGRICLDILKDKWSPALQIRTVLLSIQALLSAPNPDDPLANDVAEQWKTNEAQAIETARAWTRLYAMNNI

[2] = target: T2, Protein RecA (Mycobacterium tuberculosis, UniProt P9WHJ3); test: Fluorescence Cell-Free Homogeneous Dose Retest to Identify Inhibitors of RecA-Intein Splicing Activity. [Related pubchem assays (depositor defined):AID2097, AID2223, AID489010, AID492950]; format: functional
T2 sequence (P9WHJ3 whole entry): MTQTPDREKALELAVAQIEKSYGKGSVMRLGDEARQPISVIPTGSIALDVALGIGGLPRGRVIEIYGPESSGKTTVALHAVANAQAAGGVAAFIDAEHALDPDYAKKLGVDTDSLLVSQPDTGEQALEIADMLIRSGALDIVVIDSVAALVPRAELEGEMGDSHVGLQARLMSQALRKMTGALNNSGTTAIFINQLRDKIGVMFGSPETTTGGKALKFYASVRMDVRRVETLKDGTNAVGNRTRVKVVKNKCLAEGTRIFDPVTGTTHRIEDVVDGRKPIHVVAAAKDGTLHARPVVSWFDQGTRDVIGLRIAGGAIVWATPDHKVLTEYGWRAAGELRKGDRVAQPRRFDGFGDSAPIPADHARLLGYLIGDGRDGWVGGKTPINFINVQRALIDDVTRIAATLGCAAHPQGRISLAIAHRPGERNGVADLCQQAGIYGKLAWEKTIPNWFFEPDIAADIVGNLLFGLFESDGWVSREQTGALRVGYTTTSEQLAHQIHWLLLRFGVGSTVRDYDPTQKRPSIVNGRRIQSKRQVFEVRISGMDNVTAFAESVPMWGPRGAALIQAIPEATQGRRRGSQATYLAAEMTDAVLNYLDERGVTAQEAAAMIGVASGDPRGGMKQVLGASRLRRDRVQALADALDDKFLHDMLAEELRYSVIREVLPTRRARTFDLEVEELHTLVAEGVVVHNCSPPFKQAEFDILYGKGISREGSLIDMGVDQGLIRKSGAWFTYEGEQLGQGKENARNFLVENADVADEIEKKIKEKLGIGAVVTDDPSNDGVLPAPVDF

[3] = target: T3, Replicative DNA helicase DnaB (Mycobacterium tuberculosis, UniProt P9WMR3); test: DnaB intein splicing inhibitors, dose response, biochemical, cell-free fluorescence (AID 449749); format: functional
T3 sequence (P9WMR3 whole entry): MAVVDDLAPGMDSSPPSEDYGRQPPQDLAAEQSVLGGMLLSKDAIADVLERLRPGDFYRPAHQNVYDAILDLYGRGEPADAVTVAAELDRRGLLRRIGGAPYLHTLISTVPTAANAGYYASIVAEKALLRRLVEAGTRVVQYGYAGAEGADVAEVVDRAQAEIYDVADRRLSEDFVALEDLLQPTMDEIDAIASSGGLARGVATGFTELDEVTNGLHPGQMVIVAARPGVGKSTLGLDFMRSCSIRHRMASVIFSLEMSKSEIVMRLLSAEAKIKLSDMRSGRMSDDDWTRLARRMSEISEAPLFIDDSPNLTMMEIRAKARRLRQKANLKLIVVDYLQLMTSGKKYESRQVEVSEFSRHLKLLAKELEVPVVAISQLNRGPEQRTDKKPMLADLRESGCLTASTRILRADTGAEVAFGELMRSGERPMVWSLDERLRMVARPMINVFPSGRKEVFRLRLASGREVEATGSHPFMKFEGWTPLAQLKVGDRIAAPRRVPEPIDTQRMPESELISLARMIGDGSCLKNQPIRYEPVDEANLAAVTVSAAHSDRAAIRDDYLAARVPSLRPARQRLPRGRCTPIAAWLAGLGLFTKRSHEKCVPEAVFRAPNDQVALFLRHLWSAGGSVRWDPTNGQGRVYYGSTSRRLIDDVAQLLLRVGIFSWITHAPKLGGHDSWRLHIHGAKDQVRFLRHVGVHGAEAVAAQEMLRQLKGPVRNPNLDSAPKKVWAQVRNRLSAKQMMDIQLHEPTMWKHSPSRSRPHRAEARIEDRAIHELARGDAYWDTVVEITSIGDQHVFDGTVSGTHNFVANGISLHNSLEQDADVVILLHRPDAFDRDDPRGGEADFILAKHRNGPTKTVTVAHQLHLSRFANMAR

[4] = target: T4, Leucine aminopeptidase (Plasmodium falciparum 3D7, UniProt Q8IL11); test: P. falciparum M17LAP inhibitors, primary screen, biochemical, fluorogenic H-Leu-NHMec substrate, 1536-well (AID 1619); format: functional
T4 sequence (Q8IL11 whole entry): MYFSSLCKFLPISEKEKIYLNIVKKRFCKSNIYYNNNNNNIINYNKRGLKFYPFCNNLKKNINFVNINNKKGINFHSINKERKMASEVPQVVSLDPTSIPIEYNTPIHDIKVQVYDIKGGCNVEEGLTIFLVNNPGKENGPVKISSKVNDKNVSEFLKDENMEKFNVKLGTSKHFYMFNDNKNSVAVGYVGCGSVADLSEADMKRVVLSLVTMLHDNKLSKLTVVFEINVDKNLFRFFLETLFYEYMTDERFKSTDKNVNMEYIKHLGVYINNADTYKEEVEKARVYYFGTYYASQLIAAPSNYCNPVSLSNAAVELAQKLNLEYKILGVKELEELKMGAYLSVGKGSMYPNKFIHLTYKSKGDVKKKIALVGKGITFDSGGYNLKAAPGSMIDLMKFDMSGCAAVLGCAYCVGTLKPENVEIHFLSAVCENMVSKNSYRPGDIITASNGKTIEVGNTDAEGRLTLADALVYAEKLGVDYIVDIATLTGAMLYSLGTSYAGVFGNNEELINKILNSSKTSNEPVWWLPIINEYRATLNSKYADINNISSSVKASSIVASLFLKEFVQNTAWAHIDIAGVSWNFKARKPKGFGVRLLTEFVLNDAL

[5] = target: T5, Aminopeptidase N (Plasmodium falciparum FcB1/Columbia, UniProt O96935); test: malaria alanyl aminopeptidase activity blockers – biochemical, fluorogenic H-Leu-NHMec substrate, 1536-well (AID 1445); design: species or system Plasmodium falciparum 3D7, 3D7
T5 sequence (O96935 whole entry): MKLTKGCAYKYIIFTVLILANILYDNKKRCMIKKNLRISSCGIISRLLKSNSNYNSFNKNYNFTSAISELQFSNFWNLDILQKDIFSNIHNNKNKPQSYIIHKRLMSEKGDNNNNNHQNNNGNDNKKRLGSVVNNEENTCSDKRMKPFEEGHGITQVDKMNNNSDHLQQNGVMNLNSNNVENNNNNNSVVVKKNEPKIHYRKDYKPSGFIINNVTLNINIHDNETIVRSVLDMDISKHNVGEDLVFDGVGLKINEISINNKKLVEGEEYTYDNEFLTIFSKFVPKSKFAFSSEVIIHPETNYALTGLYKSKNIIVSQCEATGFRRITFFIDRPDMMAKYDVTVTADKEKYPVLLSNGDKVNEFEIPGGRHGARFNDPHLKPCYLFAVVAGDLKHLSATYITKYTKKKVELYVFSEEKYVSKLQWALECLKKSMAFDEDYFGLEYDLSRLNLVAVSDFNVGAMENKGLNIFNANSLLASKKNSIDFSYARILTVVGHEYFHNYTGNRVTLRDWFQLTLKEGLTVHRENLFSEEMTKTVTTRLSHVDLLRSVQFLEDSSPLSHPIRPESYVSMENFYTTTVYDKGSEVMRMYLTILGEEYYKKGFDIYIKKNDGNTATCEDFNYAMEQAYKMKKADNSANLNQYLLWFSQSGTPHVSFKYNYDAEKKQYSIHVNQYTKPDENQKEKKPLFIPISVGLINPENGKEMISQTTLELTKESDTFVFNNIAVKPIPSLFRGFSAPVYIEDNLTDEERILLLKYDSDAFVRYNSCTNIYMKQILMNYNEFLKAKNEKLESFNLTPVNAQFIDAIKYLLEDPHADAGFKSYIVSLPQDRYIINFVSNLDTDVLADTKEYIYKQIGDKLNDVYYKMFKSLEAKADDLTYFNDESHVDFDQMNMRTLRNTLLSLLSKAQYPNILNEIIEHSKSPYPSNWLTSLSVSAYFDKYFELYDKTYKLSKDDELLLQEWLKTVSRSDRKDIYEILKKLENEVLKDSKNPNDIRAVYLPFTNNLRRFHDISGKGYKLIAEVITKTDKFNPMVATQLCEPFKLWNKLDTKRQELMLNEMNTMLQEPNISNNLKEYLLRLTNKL

[6] = target: Large T antigen (Simian virus 40, UniProt P03070); format: functional, Betapolyomavirus macacae;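 note: Confirmatory-stage PubChem screen for compounds that inhibit SV40 T antigen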
Large T antigen, sequence (P03070 whole entry): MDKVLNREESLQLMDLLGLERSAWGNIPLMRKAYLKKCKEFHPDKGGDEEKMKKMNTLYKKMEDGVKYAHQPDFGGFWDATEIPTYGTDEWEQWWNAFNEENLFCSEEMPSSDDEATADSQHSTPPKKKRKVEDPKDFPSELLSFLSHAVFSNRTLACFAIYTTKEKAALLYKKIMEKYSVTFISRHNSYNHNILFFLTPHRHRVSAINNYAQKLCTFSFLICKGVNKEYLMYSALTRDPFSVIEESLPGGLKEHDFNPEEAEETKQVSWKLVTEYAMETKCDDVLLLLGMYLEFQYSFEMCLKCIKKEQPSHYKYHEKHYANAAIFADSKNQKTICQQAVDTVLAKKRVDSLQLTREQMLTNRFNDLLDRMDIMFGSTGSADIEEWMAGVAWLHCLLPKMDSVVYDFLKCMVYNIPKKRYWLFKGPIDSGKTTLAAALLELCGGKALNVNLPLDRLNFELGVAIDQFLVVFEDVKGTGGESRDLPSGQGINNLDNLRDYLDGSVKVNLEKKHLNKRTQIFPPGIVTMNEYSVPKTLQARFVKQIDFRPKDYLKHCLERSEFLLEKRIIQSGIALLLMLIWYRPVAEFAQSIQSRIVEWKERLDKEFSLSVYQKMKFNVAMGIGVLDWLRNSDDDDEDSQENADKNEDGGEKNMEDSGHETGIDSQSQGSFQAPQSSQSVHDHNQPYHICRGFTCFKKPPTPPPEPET

[7] = target: Genome polyprotein (dengue virus type 2, UniProt P29990); test: flavivirus cap methylation enzyme inhibition – biochemical, confirmation dose response, primary screen (AID 588689); format: functional
Genome polyprotein, sequence (P29990 2492-3391 limits assumed): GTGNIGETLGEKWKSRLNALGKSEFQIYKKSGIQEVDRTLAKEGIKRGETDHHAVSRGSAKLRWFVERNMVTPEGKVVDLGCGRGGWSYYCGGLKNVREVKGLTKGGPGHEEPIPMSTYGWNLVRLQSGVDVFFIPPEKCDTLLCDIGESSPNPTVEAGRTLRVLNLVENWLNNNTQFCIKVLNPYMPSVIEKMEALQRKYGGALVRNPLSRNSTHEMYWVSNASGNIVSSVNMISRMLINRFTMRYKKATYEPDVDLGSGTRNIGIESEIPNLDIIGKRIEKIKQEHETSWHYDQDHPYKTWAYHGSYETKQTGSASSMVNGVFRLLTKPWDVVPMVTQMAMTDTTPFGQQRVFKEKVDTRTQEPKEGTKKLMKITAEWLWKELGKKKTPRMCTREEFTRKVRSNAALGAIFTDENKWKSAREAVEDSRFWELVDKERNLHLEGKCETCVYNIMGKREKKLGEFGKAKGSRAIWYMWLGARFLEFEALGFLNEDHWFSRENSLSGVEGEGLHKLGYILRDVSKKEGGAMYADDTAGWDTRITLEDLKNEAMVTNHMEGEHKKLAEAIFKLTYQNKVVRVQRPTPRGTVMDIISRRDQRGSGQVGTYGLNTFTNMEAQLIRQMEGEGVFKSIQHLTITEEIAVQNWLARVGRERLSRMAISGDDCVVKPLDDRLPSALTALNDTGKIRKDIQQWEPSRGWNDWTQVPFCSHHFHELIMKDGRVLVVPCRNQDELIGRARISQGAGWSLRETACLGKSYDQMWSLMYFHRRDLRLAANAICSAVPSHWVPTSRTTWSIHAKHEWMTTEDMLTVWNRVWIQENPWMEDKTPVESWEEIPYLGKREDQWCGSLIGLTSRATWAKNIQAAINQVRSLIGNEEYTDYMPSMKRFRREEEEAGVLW

[8] = target: T6, Rac GTPase-activating protein 1 (Homo sapiens, UniProt Q9H0H5); test: blockers of MgcRacGAP-driven Rac1 GTP hydrolysis – biochemical, ADP Hunter fluorescence, primary and confirmatory, confirmation (AID 624330); format: functional
T6 sequence (Q9H0H5 whole entry): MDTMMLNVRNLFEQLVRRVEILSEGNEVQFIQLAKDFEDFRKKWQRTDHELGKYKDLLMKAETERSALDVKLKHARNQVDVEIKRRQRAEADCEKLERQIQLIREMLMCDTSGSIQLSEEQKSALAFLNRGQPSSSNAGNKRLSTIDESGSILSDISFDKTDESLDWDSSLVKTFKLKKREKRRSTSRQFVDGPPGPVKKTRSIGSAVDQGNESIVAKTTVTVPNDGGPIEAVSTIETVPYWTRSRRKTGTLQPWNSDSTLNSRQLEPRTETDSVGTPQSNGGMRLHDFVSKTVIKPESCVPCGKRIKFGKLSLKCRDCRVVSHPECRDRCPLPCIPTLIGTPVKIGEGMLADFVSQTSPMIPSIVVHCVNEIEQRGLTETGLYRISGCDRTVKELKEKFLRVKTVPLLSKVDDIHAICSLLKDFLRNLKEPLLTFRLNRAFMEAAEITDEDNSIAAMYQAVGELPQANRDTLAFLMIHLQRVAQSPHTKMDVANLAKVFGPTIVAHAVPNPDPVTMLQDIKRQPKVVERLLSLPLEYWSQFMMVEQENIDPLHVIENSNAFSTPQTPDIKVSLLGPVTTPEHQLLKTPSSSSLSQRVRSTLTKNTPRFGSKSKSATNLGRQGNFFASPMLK

[9] = target: T7, Mannose-6-phosphate isomerase (Homo sapiens, UniProt P34949); test: MPI inhibition at elevated mannose 6-phosphate – biochemical, fluorescence intensity, high mannose 6-phosphate, primary screen (AID 1220)
T7 sequence (P34949 whole entry): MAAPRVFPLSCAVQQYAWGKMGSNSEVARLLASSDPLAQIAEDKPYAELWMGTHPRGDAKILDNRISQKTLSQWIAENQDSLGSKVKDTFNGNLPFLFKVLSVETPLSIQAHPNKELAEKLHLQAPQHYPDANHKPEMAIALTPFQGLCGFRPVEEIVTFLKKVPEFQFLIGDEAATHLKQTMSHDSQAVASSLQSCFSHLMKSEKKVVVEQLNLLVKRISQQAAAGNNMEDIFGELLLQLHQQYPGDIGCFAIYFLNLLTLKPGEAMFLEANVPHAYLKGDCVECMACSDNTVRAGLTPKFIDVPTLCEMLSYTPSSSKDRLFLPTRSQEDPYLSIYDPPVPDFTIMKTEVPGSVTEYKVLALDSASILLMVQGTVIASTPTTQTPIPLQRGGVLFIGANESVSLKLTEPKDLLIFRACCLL

[10] = target: Glyceraldehyde-3-phosphate dehydrogenase (Homo sapiens, UniProt P04406)
Glyceraldehyde-3-phosphate dehydrogenase, sequence (P04406 whole entry): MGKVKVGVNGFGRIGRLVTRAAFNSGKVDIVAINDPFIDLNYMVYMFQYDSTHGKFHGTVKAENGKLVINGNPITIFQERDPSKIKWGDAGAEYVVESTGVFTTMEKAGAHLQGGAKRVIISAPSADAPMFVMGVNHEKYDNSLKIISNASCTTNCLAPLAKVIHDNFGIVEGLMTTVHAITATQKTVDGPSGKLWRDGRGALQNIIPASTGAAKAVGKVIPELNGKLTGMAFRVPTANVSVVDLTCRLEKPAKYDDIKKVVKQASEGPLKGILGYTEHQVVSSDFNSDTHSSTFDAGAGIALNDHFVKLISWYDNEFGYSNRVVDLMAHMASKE

[11] = viability of uninfected HEp-2 cells – cell-based, HTS, cytotoxicity control for RSV inhibitor project, dose response (AID 2410); format: functional; conditions: human respiratory syncytial virus
[12] = viability of PTEN-deleted HCT116 cells – cell-based, HCT116 PTEN knockout, dose response (AID 1047); format: functional;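 note: HCT116 colon tumor cells with PTEN knocked out; cells exposed to compound for 60 hours before readout; potency for loss of cell viability measured by luminescence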
[13] = viability of HCT116 lacking mutant beta-catenin – cell-based, human colon tumor, dose response (AID 1045); format: functional;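 note: HCT116 colon tumor cells with beta catenin knocked out; cells exposed to compound for 60 hours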
[14] = microbe, parasite or virus in culture; format: functional; conditions: Mycobacterium tuberculosis
[15] = Luminescence Cell-Based Dose Retest to Confirm Inhibitors of Cancer Stem Cells. [Related pubchem assays (depositor defined):AID2717, AID2721]; format: functional; conditions: Homo sapiens
[16] = system: Vero; test: mammalian cell viability reduction – secondary assay, cytotoxicity control for West Nile virus antiviral project, dose response (AID 1650); format: functional; conditions: Chlorocebus sabaeus
[17] = system: Vero; test: cells; format: functional; conditions: Chlorocebus sabaeus
[18] = target: Cytochrome P450 2C9 (Homo sapiens, UniProt P11712)
Cytochrome P450 2C9, sequence (P11712 whole entry): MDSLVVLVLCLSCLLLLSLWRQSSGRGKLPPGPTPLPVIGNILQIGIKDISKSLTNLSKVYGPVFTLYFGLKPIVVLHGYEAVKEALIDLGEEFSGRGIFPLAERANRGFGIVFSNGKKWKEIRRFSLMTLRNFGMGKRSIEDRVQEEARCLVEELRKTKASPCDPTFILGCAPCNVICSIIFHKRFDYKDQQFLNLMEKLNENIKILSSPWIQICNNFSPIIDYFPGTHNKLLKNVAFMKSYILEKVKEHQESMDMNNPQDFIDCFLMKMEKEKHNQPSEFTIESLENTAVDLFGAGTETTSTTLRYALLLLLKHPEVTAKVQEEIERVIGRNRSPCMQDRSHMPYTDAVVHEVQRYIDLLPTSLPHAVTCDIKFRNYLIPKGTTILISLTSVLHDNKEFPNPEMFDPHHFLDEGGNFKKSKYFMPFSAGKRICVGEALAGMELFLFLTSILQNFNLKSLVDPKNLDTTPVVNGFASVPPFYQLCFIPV

Cc1ccc(CNC(=O)CSc2nc3ccsc3c(=O)n2Cc2ccc(C(=O)O)cc2)cc1
IC50 [1]: > 20 µM (inactive)

CC1=NN(CCC#N)C(=O)/C1=C/c1ccc(N(C)C)cc1
EC50 [2]: 3.17 µM (active) | AC50 [3]: 2.79 µM (inconclusive) | IC50 [4]: 120 µM (active)

CC1=NOC(=O)/C1=C\c1ccc(-c2ccc(Cl)c(C(=O)O)c2)o1
IC50 [5]: 17.4 µM (active) | IC50 [6]: 14.2 µM (active) | IC50 [7]: 15.3 µM (active) | IC50 [8]: 141 µM (active) | IC50 [9]: > 50 µM (not active)

COc1cccc(S(=O)(=O)Nc2cnc3ccccc3c2)c1
IC50 [10]: > 100 µM (not active)

COc1ccc(-c2nc(N3CCOCC3)nc3n[nH]c(N)c23)cc1
IC50 [4]: 8.11 µM (active)

CCOC(=O)c1ccc(-c2ccc(/C=N/NC(=O)CN(c3ccccc3Br)S(C)(=O)=O)o2)cc1
CC50 [11]: > 50 µM (active) | EC50 [12]: 17.8 µM (active) | EC50 [13]: 22.5 µM (active)

CCCCN1C(=O)C2Cc3c([nH]c4ccccc34)CN2C1=S (stereo not given)
CC50 [11]: 20.8 µM (active)

O=C(Nc1nncs1)c1cccc(S(=O)(=O)N2CCCC2)c1
IC50 [10]: > 100 µM (not active)

CCCCOc1ccc(C(=O)N/N=C/c2ccc(OCCN3CCCCC3)c(OC)c2)cc1
CC50 [14]: 18.9 µM (active) | CC50 [11]: 16.1 µM (active)

O=C(c1c[nH]c2ccccc12)C(Cl)c1ccccc1 (stereo not given)
AC50 [15]: 1.74 µM (active) | CC50 [16]: 66.6 µM (active) | CC50 [17]: > 25 µM (active)

Cn1c(O)cc(=O)nc1SCC(=O)Nc1ccccc1
IC50 [4]: 17.1 µM (active) | AC50 [18]: 2.82 µM (inconclusive)

COc1ccc(/C=C/C(=O)Nc2ccc3c(c2)CCC3)cc1OC
CC50 [11]: > 50 µM (active)

Cc1nc2c([nH]1)OC(N)=C(C#N)C21CCN(Cc2ccccc2)CC1
IC50 [4]: 63.2 µM (active)
